{"source": "patent US9045505B2", "about": "“Nitric oxide donors” (University of Otago, priority 2006, dated 2015)", "key": {"mice": {"test_system": "mice", "experiment": "Cardiac ischemia-reperfusion injury in vivo (LAD occlusion)", "design": "species or system mouse", "conditions": "100 ng/kg into left ventricle 5 min prior to reperfusion, 30 min LAD occlusion, 24 h recovery", "experimental": "Male C57BL/6 mice (˜25 g) were purchased from the Jackson Laboratory and handled in accordance with the procedures of the University of Rochester Committee on Animal Research. All surgical procedures were sterile and performed as described previously. Briefly, analgesics (acetaminophen 0.75 mg/ml in drinking water) were administered 24 hr before, and during the perioperative period.\nFollowing anesthesia (Avertin, 2,2,2-tribromoethanol, […] IP) mice were intubated with a 20 gauge PE catheter which was connected to a rodent ventilator (Harvard MiniVent, 120 cycles/min., 0.3 ml tidal volume). A thoracotomy was performed and the left anterior descending coronary artery (LAD) was then ligated and occluded with a 9-0 proline suture for 30 min. MitoSNAP or MitoNAP (100 ng/kg) were dissolved in 0.9% NaCl saline (final volume 50 μl) and then administered 5 min prior to reperfusion into left ventricle (LV) using 30G½ needle. Reperfusion was initiated by removing the suture. The chest and skin were sutured closed, the endotracheal tube removed and the animal returned to its cage to recover. After 24 hrs. the animal was re-anesthetized, the LAD re-ligated, and Evans' blue dye (1.0% w/v, 1.5 ml) perfused via the LV. […] Slices were scanned and infarct/AR ratios determined with NIH ImageJ software."}, "liver mitochondria": {"test_system": "liver mitochondria", "experiment": "Exposed protein thiols, glutathionylation and GSH/GSSG in liver mitochondria", "type": "biochemical, rat", "experimental": "Mitochondrial incubations were usually in KCl buffer (120 mM KCl, 10 mM HEPES, 1 mM EGTA, 100 μM N,N-bis(2-bis[carboxymethyl]aminoethyl) glycine (DTPA) and 10 μM neocuproine, pH 7.2) with 10 mM succinate and 4 μg/ml rotenone in the dark at 37° C., unless stated otherwise. An electrode selective for the TPP moiety of MitoSNAP and MitoNAP was made and used as described previously (Asin-Cayuela, J., Manas, A. R., James, A. M., Smith, R. A. & Murphy, M. P. Fine-tuning the hydrophobicity of a mitochondria-targeted antioxidant. FEBS Letts. 571, 9-16 (2004)). Respiration rates were measured in a Clark type O2 electrode (Rank Brothers, UK). To measure GSH and GSSG, mitochondria (1 mg protein/ml) were incubated with 0-10 μM MitoSNO1 or MitoNAP for 10 min, pelleted by centrifugation and the GSH and GSSG contents assessed by the recycling assay (Scarlett, J. L., Packer, M. A., Porteous, C. M. & Murphy, M. P. Alterations to glutathione and nicotinamide nucleotides during the mitochondrial permeability transition induced by peroxynitrite. Biochem. Pharmacol. 52, 1047-1055 (1996)). The measurement of exposed mitochondrial protein thiols is described below.\nSmall molecules were removed by centrifugation through MicroBioSpin Columns (cut off=6 kDa), the eluate was clarified by centrifugation (2 min at 10,000×g) and protein thiols measured in triplicate by mixing 10 μl sample or GSH standard with 160 μl of 200 μM dithionitrobenzoic acid (DTNB) in 80 mM NaPi, 1 mM EDTA, pH 8 in a 96 well plate and absorbance at 412 nm was measured after 30 min at room temperature and the thiol content determined from the GSH standard curve. The protein concentration was measured in parallel by the bicinchonininc assay using BSA as a standard.\nThe interaction of MitoSNAP with mitochondrial thiol proteins is likely to initiate a dynamic process that may lead to other protein thiol modifications, such as disulfide formation, glutathionylation, sulfenylation or sulfenylamide formation, in addition to persistent S-nitrosation. To assess these, the content of reactive, solvent-exposed thiols on native liver mitochondrial proteins was measured. […] This is consistent with the finding that the maximum extent of mitochondrial protein S-nitrosation by 5 μM MitoSNAP (˜500 pmol SNO/mg protein; FIG. 11) was only ˜1% of the total number of protein thiols available. A small amount of MitoSNAP binding to mitochondrial thiol proteins through the formation of mixed disulfides was detectable by immunoblotting."}, "[1]": {"experiment": "Reaction with GSH and half-life in the cytosol", "type": "physicochemical", "conditions": "cytosol (estimated) with 5 mM GSH; physiological GSH concentration of 5 mM", "experimental": "The uptake of alkylTPP molecules into mitochondria within cells is rapid, equilibrating within 5-10 min (Ross, M. F. et al. Rapid and extensive uptake and activation of hydrophobic triphenylphosphonium cations within cells. Biochem. J. 411, 633-645 (2008)), and the rate limiting step is passage across the plasma membrane with rapid subsequent uptake into mitochondria (Ross, M. F. et al. Rapid and extensive uptake and activation of hydrophobic triphenylphosphonium cations within cells. Biochem. J. 411, 633-645 (2008) and Smith, R. A., Kelso, G. F., James, A. M. & Murphy, M. P. Targeting coenzyme Q derivatives to mitochondria. Meth. Enzymol. 382, 45-67 (2004)). Consequently, once through the plasma membrane, MitoSNAP should remain in the cytosol for a very short time before uptake into mitochondria. The rate of reaction of GSH with SNAP is 5.4 M^−1.s^−1 (Hogg, N. The kinetics of S-transnitrosation-a reversible second-order reaction. Anal. Biochem. 272, 257-62 (1999)). While other pathways of MitoSNAP decay in the cytosol may also contribute, GSH is likely to be the major one and at a physiological GSH concentration of 5 mM the half-life for MitoSNAP in the cytosol should be ˜25 s, giving plenty of time for MitoSNAP uptake into mitochondria. […]"}, "complex I": {"test_system": "complex I", "experiment": "Respiration by bovine heart mitochondrial membranes on NADH or succinate", "type": "biochemical", "conditions": "75 μM, 5 min", "experimental": "(a) Effect of MitoSNAP on mitochondrial respiration.\nMitochondrial preparations and incubations."}}, "data": [{"smiles": "CC(=O)NC(C(=O)NCCCCC[P+](c1ccccc1)(c1ccccc1)c1ccccc1)C(C)(C)SN=O.CS(=O)(=O)[O-]", "note": "(stereo not shown) [MitoSNAP, [5-(2-acetylamino-3-methyl-3-nitrosothio-butyrylamino)-penty1]-triphenylphosphonium methanesulfonate]", "values": [{"measurement": "protection against heart damage (infarct/area at risk)", "setting": "mice", "result": "Protects Against Cardiac Ischemia-Reperfusion Injury"}, {"measurement": "reactive, solvent-exposed thiols on native liver mitochondrial proteins", "setting": "liver mitochondria; 5 μM, 5 min, mean±sem, n=3", "result": "46.7±9.6", "unit": "nmol thiols/mg protein"}, {"measurement": "GSH and GSSG content of mitochondria", "setting": "liver mitochondria; 10 μM, 10 min", "result": "no loss of GSH or accumulation of GSSG"}, {"measurement": "protein-glutathione mixed disulfides (glutathionylation)", "setting": "liver mitochondria; mitochondria, MitoSNAP 5 μM", "result": "not detectable"}, {"measurement": "half-life", "setting": "[1]", "result": "~25", "unit": "s"}, {"measurement": "effect on succinate respiration", "setting": "complex I", "result": "unaffected"}, {"measurement": "inhibition of NADH respiration", "setting": "complex I", "result": "about 35%"}]}]}
